Reference: PMC4186434, “Antagonism of human CC-chemokine receptor 4 can be achieved through three distinct binding sites on the receptor” (Pharmacology Research & Perspectives, 2013)

Target: T1, human CC-chemokine receptor 4 (CCR4); CHO-CCR4 membranes (Homo sapiens, UniProt P51679)
T1 construct: membranes
T1 sequence (P51679 1-360): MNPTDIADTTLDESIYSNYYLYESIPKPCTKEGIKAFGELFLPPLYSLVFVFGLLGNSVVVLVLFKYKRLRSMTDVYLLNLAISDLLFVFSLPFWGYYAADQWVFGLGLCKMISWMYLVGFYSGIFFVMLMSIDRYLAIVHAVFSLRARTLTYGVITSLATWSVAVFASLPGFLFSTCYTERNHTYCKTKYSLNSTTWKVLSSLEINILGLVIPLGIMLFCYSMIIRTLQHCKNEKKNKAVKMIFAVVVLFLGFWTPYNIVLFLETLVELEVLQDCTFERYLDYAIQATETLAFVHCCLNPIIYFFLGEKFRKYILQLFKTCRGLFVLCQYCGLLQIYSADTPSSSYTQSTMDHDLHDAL
Test: […]CCL17 displacement, scintillation proximity assay, CHO-CCR4 membranes
Assay type: binding
Settings: read-out: [^125I]CCL17 / pKi (converted)

| Ki [nM] | SMILES |
| --- | --- |
| 457 | c1ccc2c(Nc3nc(CN(CC4CCCCC4)CC4CCCCC4)cs3)cccc2c1 [compound 1] |
| 2.75 | O=C([C@H]1CCCCN1)N1CCN(c2nccc(NCc3ccc(Cl)cc3Cl)n2)CC1 [compound 4] |
| 18.2 | COc1cccc2c1c(NS(=O)(=O)c1ccc(Cl)s1)nn2Cc1cccc(CNC(=O)OC(C)(C)C)c1 [compound 2] |
| 6.17 | COc1cccc2c1c(NS(=O)(=O)c1ccc(Cl)s1)nn2Cc1cccc(CNC(=O)C(C)(C)O)c1 [compound 3] |
| 2 | COc1cc2nc(N3CCC(N(C)C(=O)[C@H]4CCCN4)CC3)nc(Nc3ccc(Cl)cc3F)c2cc1OC [compound 6] |
| 29.5 | COc1nc(Br)cnc1NS(=O)(=O)c1ccc(Cl)s1 [compound 7] |
